Assay results from patent publication US20100015258A1, “Rice Bran Extracts and Methods of Use Thereof” (priority 2008, published 2010).
Read-outs that look alike come from different tables or passages of the source.

Columns and labels:
[1] = biological target: T1, Fatty Acid Binding Protein 4 (FABP4) (Homo sapiens, UniProt P15090); assay: FABP4 Inhibitor/Ligand Screening Kit (fluorescence); settings: based on contribution across all actives, read-out: Predicted IC50
T1 construct: purchased Cayman, Ann Arbor, Mich
Procedure: Fatty Acid Binding Protein 4 (FABP4) inhibition was determined using the Fatty Acid Binding Protein 4 (FABP4) Inhibitor/Ligand Screening Kit (Cayman, Ann Arbor, Mich.). […] Potential inhibitors/ligands of the FABP4 protein were incubated to FABP4 in assay buffer for 15 minutes at room temperature. Arachidonic acid was used as a known inhibitor standard for comparison. The positive control wells received no inhibitor/ligand (i.e., no arachidonic acid or extract) and the negative control wells received no FABP4. The extracts, in solution, were then exposed to a developer that will fluoresce when bound to FABP4. If FABP4 is inhibited, reduction in fluorescence yield is observed. Fluorescence was quantified using a Synergy 4 plate reader that is tuned to excitation/emission wavelengths of 370 nm and 475 nm, respectively. The fluorescence of the negative controls was subtracted from the positive control wells, and the fluorescence from the “undetected” wells was subtracted from the corresponding “detected” wells. An IC50 value was determined based on the percent fluorescence of the corrected extract wells relative to the corrected positive controls.

3T3-L1 cells = assay: [1,2-3H]2-Deoxy-D-glucose (2-deoxyglucose) uptake; format: cell-based; settings: for CPM (glucose uptake): 3T3-L1 cells
Procedure: 1. [1,2-^3H]2-Deoxy-D-glucose (2-deoxyglucose) Uptake: Cells, 3T3-L adipocytes, were grown and differentiated as described below. Prior to [^3H]2-deoxyglucose uptake, cells were switched to DMEM with 0.1% bovine serum albumin for 6 h. The [^3H]2-deoxyglucose uptake was assayed as described (D. R. Cooper, J. E. Watson, N. Patel, P. Illingworth, M. Cevedo-Duncan, J. Goodnight, C. E. Chalfant, and H. Mischak, 1999. Ectopic expression of protein kinase CbetaII, -delta, and -epsilon, but not-betaI or -zeta, provide for insulin stimulation of glucose uptake in NIH-3T3 cells. Arch. Biochem. Biophys., 372:69-79; T. P Ciraldi, O. G. Kolterman, and J. M. Olesky, 1981. Mechanism of the postreceptor defect in insulin action in human obesity: decrease in glucose transport system activity. J. Clin Invest., 68:875-880.). […] Uptake was measured by the addition of 10 nmol of [^3H] 2-deoxyglucose (50-150 μCi/μmol) and followed by incubation for 6 min at 37° C. The uptake was terminated by aspiration of media and cell monolayers were washed three times with cold DPBS. Cells were lysed with 1 ml of 1% (w/v) SDS, and radioactivity determined by liquid scintillation counting. The 2-Deoxyglucose uptake refers to transport of the analogue across the plasma membrane operating in tandem with its phosphorylation by hexokinase.

[2] = range across SRB Extracts 1 to 14

T1 sequence (P15090 whole entry, species assumed): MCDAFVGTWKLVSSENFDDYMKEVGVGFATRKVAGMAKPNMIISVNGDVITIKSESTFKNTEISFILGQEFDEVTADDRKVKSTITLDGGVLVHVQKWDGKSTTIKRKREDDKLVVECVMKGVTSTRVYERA

IC50 ([1]; in SRB Extract 6) | IC50 [1, 2] | Compound | other results
73.3 µM | 61 to 85 µM | 4,5-Dihydro-4-hydroxy-5-methyl-2-tetradecyl-2(3H)-furanone | –
– | 29.9 to 61.3 µM | 24-Nor-4(23),9(11)-fernadiene | –
29.7 µM | 7.99 to 101 µM | CCCCCCCCCCCCCCCCCCCCCCCCCCCCCCOC(=O)C=Cc1ccc(O)c(O)c1 [3-(3,4-Dihydroxyphenyl)-2-propenoicacid Triacontyl ester] | –
96.8 µM | 38.9 to 117 µM | CCCCCCCCC=CCCCCCCCC1CC(O)C(=O)O1 (centres unmarked) [5-(8-Heptadecenyl)dihydro-3-hydroxy-2(3H)-furanone] | –
91 µM | 28.3 to 90.3 µM | CC1(C)CCC2(C)CCC3(C)C(=C2C1)C=CC1C2(C)CCCC(C)(C)C2CCC13C (centres unmarked) [11,13(18)-Oleanadiene] | –
60.5 µM | 21.3 to 25.7 µM | C=C(CCC(C)C1CCC2(C)C3CCC4CC(O)CCC45CC35CCC12C)C(C)C (centres unmarked) [14-Methyl-9,19-cycloergost-24(28)-en-3-ol] | –
199 µM | 17.4 to 160 µM | CC1CCC2(C)CCC3(C)C(=CCC4C5(C)CCCC(C)C5CCC43C)C2C1C (centres unmarked) [24-Nor-12-ursene] | –
26.5 µM | 6.96 to 81.2 µM | CC(=O)CC/C=C(\C)CC/C=C(\C)CC/C=C(\C)CC/C=C(\C)CC/C=C(\C)CC/C=C(\C)CC/C=C(\C)CCC=C(C)C [Bombiprenone] | –
24.7 µM | 4.89 to 56 µM | CCCCC/C=C\C/C=C\CCCCCCCC(=O)OCC(CO)OC(=O)CCCCCCC/C=C\C/C=C\CCCCC (centres unmarked) [Glycerol 1,2-di-(9Z,12Z-octadecadienoate)] | –
40 µM | 17.4 to 69.5 µM | CCCCCCCCCCCC/C=C\CC/C=C\CC[C@@H](O)[C@H](O)CCCCCCCCCCC1=C[C@H](C)OC1=O [Montecristin] | –
69.4 µM | 44.2 to 80.4 µM | CC[C@H]1CC[C@H]2[C@@H]3CC(O)C4CC(O)C(O)C[C@]4(C)[C@H]3CC[C@]12C (some centres unmarked) [Pregnane-2,3,6-triol] | –
– | – | Insulin: insulin, comparator for glucose uptake stimulation | Increase over 200 nM Insulin (3T3-L1 cells; 50 nM insulin): 0.6; Increase over Control (3T3-L1 cells; 50 nM insulin): 1.1; Max CPM (3T3-L1 cells; 50 nM insulin): 149 CPM; Increase over 200 nM Insulin (3T3-L1 cells; 100 nM insulin): 0.6; Increase over Control (3T3-L1 cells; 100 nM insulin): 1.2; Max CPM (3T3-L1 cells; 100 nM insulin): 157 CPM; Increase over Control (3T3-L1 cells; 200 nM insulin): 2.0; Max CPM (3T3-L1 cells; 200 nM insulin): 266 CPM; CPM (glucose uptake) (3T3-L1 cells; insulin 50 nM): 149 CPM; CPM (glucose uptake) (3T3-L1 cells; insulin 100 nM): 157 CPM; CPM (glucose uptake) (3T3-L1 cells; insulin 200 nM): 266 CPM
